# According to patent publication US20220323406A1, “METHODS AND COMPOSITIONS FOR DIFFERENTIATING STEM CELLS” (Massachusetts Institute of Technology, priority 2019, published 2022):
# Experiments:
# Conditions in all cases: primary screen
# [1] = system: ENR+CD organoids (ISC to Paneth cell differentiation); assay: Primary screen: basal (non-stimulated) lysozyme secretion LYZ.NS, 2.5-D 384-well ENR+CD organoid differentiation; format: cell-based, mouse
# From the text: (§1) High-throughput screening.
# [2] = system: ENR+CD organoids (ISC to Paneth cell differentiation); assay: Primary screen: CCh-stimulated lysozyme secretion LYZ.S, 2.5-D 384-well ENR+CD organoid differentiation; format: cell-based, mouse
# From the text: as §1
# ENR+CD organoids = assay: Primary screen: ATP (CellTiter-Glo 3D, CTG) cell number/viability, 2.5-D 384-well ENR+CD organoids;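 also: compounds given at plating and again on day 3 over a 6-day differentiation from ENR+CV stem-cell-enriched precursors, ATP measured on day 6, plate median as control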
structure (smiles),measurement,setting,value
O=C(c1cncc(Br)c1)N1CCC(N2CCCC2)CC1 [UNC669],Dose.FC.LYZ.NS,[1]; dose 0.08 uM,0.066 log2 fold change
same,Z.LYZ.NS (standard z score),[1]; dose 0.08 uM,0.578
same,Dose.FC.LYZ.NS,[1]; dose 0.40 uM,−0.006 log2 fold change
same,Z.LYZ.NS (standard z score),[1]; dose 0.40 uM,−0.048
same,Dose.FC.LYZ.NS,[1]; dose 2.00 uM,0.070 log2 fold change
same,Z.LYZ.NS (standard z score),[1]; dose 2.00 uM,0.606
same,Dose.FC.LYZ.NS,[1]; dose 10.00 uM,0.029 log2 fold change
same,Z.LYZ.NS (standard z score),[1]; dose 10.00 uM,0.249
same,Dose.FC.LYZ.S,[2]; dose 0.08 uM,0.047 log2 fold change
same,Dose.FC.LYZ.S,[2]; dose 0.40 uM,−0.029 log2 fold change
same,Dose.FC.LYZ.S,[2]; dose 2.00 uM,0.025 log2 fold change
same,Dose.FC.LYZ.S,[2]; dose 10.00 uM,0.002 log2 fold change
same,Dose.FC.CTG,ENR+CD organoids; dose 0.08 uM,−0.095 log2 fold change
same,Z.CTG (standard z score),ENR+CD organoids; dose 0.08 uM,−0.226
same,Dose.FC.CTG,ENR+CD organoids; dose 0.40 uM,0.096 log2 fold change
same,Z.CTG (standard z score),ENR+CD organoids; dose 0.40 uM,0.228
same,Dose.FC.CTG,ENR+CD organoids; dose 2.00 uM,−0.235 log2 fold change
same,Z.CTG (standard z score),ENR+CD organoids; dose 2.00 uM,−0.561
same,Dose.FC.CTG,ENR+CD organoids; dose 10.00 uM,0.073 log2 fold change
same,Z.CTG (standard z score),ENR+CD organoids; dose 10.00 uM,0.174
CCCCNc1ncc(-c2ccc(CN3CCOCC3)cn2)c(NC2CCC(O)CC2)n1 (centres unmarked) [UNC2250],Dose.FC.LYZ.NS,[1]; dose 0.08 uM,0.115 log2 fold change
same,Z.LYZ.NS (standard z score),[1]; dose 0.08 uM,1.005
same,Dose.FC.LYZ.NS,[1]; dose 0.40 uM,0.067 log2 fold change
same,Z.LYZ.NS (standard z score),[1]; dose 0.40 uM,0.587
same,Dose.FC.LYZ.NS,[1]; dose 2.00 uM,0.085 log2 fold change
same,Z.LYZ.NS (standard z score),[1]; dose 2.00 uM,0.744
same,Dose.FC.LYZ.NS,[1]; dose 10.00 uM,−0.153 log2 fold change
same,Z.LYZ.NS (standard z score),[1]; dose 10.00 uM,−1.336
same,Dose.FC.LYZ.S,[2]; dose 0.08 uM,0.142 log2 fold change
same,Dose.FC.LYZ.S,[2]; dose 0.40 uM,0.113 log2 fold change
same,Dose.FC.LYZ.S,[2]; dose 2.00 uM,0.134 log2 fold change
same,Dose.FC.LYZ.S,[2]; dose 10.00 uM,−0.205 log2 fold change
same,Dose.FC.CTG,ENR+CD organoids; dose 0.08 uM,0.265 log2 fold change
same,Z.CTG (standard z score),ENR+CD organoids; dose 0.08 uM,0.633
same,Dose.FC.CTG,ENR+CD organoids; dose 0.40 uM,0.279 log2 fold change
same,Z.CTG (standard z score),ENR+CD organoids; dose 0.40 uM,0.667
same,Dose.FC.CTG,ENR+CD organoids; dose 2.00 uM,0.105 log2 fold change
same,Z.CTG (standard z score),ENR+CD organoids; dose 2.00 uM,0.250
same,Dose.FC.CTG,ENR+CD organoids; dose 10.00 uM,−0.064 log2 fold change
same,Z.CTG (standard z score),ENR+CD organoids; dose 10.00 uM,−0.153
NC(=O)c1cccc(-c2cccc(OC(=O)NC3CCCCC3)c2)c1 [URB597],Dose.FC.LYZ.NS,[1]; dose 0.08 uM,0.087 log2 fold change
same,Z.LYZ.NS (standard z score),[1]; dose 0.08 uM,0.754
same,Dose.FC.LYZ.NS,[1]; dose 0.40 uM,−0.001 log2 fold change
same,Z.LYZ.NS (standard z score),[1]; dose 0.40 uM,−0.007
same,Dose.FC.LYZ.NS,[1]; dose 2.00 uM,0.035 log2 fold change
same,Z.LYZ.NS (standard z score),[1]; dose 2.00 uM,0.307
same,Dose.FC.LYZ.NS,[1]; dose 10.00 uM,−0.014 log2 fold change
same,Z.LYZ.NS (standard z score),[1]; dose 10.00 uM,−0.123
same,Dose.FC.LYZ.S,[2]; dose 0.08 uM,0.141 log2 fold change
same,Dose.FC.LYZ.S,[2]; dose 0.40 uM,0.021 log2 fold change
same,Dose.FC.LYZ.S,[2]; dose 2.00 uM,0.017 log2 fold change
same,Dose.FC.LYZ.S,[2]; dose 10.00 uM,−0.044 log2 fold change
same,Dose.FC.CTG,ENR+CD organoids; dose 0.08 uM,0.314 log2 fold change
same,Dose.FC.CTG,ENR+CD organoids; dose 0.40 uM,0.065 log2 fold change
same,Dose.FC.CTG,ENR+CD organoids; dose 2.00 uM,0.137 log2 fold change
same,Dose.FC.CTG,ENR+CD organoids; dose 10.00 uM,−0.021 log2 fold change
CS(=O)(=O)c1ccc(-c2cnc(N)c(C(=O)Nc3ccccc3)n2)cc1 [VE-821],Dose.FC.LYZ.NS,[1]; dose 0.08 uM,0.106 log2 fold change
same,Z.LYZ.NS (standard z score),[1]; dose 0.08 uM,0.924
same,Dose.FC.LYZ.NS,[1]; dose 0.40 uM,0.063 log2 fold change
same,Z.LYZ.NS (standard z score),[1]; dose 0.40 uM,0.544
same,Dose.FC.LYZ.NS,[1]; dose 2.00 uM,0.103 log2 fold change
same,Z.LYZ.NS (standard z score),[1]; dose 2.00 uM,0.901
same,Dose.FC.LYZ.NS,[1]; dose 10.00 uM,−0.284 log2 fold change
same,Z.LYZ.NS (standard z score),[1]; dose 10.00 uM,−2.475
same,Dose.FC.LYZ.S,[2]; dose 0.08 uM,0.130 log2 fold change
same,Dose.FC.LYZ.S,[2]; dose 0.40 uM,0.089 log2 fold change
same,Dose.FC.LYZ.S,[2]; dose 2.00 uM,−0.004 log2 fold change
same,Dose.FC.LYZ.S,[2]; dose 10.00 uM,−0.429 log2 fold change
same,Dose.FC.CTG,ENR+CD organoids; dose 0.08 uM,0.213 log2 fold change
same,Dose.FC.CTG,ENR+CD organoids; dose 0.40 uM,0.130 log2 fold change
same,Dose.FC.CTG,ENR+CD organoids; dose 2.00 uM,−0.137 log2 fold change
same,Dose.FC.CTG,ENR+CD organoids; dose 10.00 uM,−0.840 log2 fold change
CNCc1ccc(-c2cc(-c3nc(-c4ccc(S(=O)(=O)C(C)C)cc4)cnc3N)on2)cc1 [VE-822],Dose.FC.LYZ.NS,[1]; dose 0.08 uM,0.058 log2 fold change
same,Z.LYZ.NS (standard z score),[1]; dose 0.08 uM,0.505
same,Dose.FC.LYZ.NS,[1]; dose 0.40 uM,−0.040 log2 fold change
same,Z.LYZ.NS (standard z score),[1]; dose 0.40 uM,−0.351
same,Dose.FC.LYZ.NS,[1]; dose 2.00 uM,−0.220 log2 fold change
same,Z.LYZ.NS (standard z score),[1]; dose 2.00 uM,−1.913
same,Dose.FC.LYZ.NS,[1]; dose 10.00 uM,−0.210 log2 fold change
same,Z.LYZ.NS (standard z score),[1]; dose 10.00 uM,−1.825
same,Dose.FC.LYZ.S,[2]; dose 0.08 uM,0.104 log2 fold change
same,Dose.FC.LYZ.S,[2]; dose 0.40 uM,−0.064 log2 fold change
same,Dose.FC.LYZ.S,[2]; dose 2.00 uM,−0.302 log2 fold change
same,Dose.FC.LYZ.S,[2]; dose 10.00 uM,−0.321 log2 fold change
same,Dose.FC.CTG,ENR+CD organoids; dose 0.08 uM,−0.147 log2 fold change
same,Dose.FC.CTG,ENR+CD organoids; dose 0.40 uM,−0.287 log2 fold change
same,Dose.FC.CTG,ENR+CD organoids; dose 2.00 uM,−0.717 log2 fold change
same,Dose.FC.CTG,ENR+CD organoids; dose 10.00 uM,−1.763 log2 fold change
"Cc1cc(Nc2cc(N3CCN(C)CC3)nc(Sc3ccc(NC(=O)C4CC4)cc3)n2)n[nH]1 [VX-680 (Tozasertib, MK-0457)]",Dose.FC.LYZ.NS,[1]; dose 0.08 uM,−0.043 log2 fold change
same,Z.LYZ.NS (standard z score),[1]; dose 0.08 uM,−0.371
same,Dose.FC.LYZ.NS,[1]; dose 0.40 uM,−0.151 log2 fold change
same,Z.LYZ.NS (standard z score),[1]; dose 0.40 uM,−1.317
same,Dose.FC.LYZ.NS,[1]; dose 2.00 uM,−0.166 log2 fold change
same,Z.LYZ.NS (standard z score),[1]; dose 2.00 uM,−1.450
same,Dose.FC.LYZ.NS,[1]; dose 10.00 uM,−0.238 log2 fold change
same,Z.LYZ.NS (standard z score),[1]; dose 10.00 uM,−2.069
same,Dose.FC.LYZ.S,[2]; dose 0.08 uM,−0.078 log2 fold change
same,Dose.FC.LYZ.S,[2]; dose 0.40 uM,−0.245 log2 fold change
same,Dose.FC.LYZ.S,[2]; dose 2.00 uM,−0.308 log2 fold change
same,Dose.FC.LYZ.S,[2]; dose 10.00 uM,−0.342 log2 fold change
same,Dose.FC.CTG,ENR+CD organoids; dose 0.08 uM,−0.150 log2 fold change
same,Z.CTG (standard z score),ENR+CD organoids; dose 0.08 uM,−0.359
same,Dose.FC.CTG,ENR+CD organoids; dose 0.40 uM,−0.596 log2 fold change
same,Z.CTG (standard z score),ENR+CD organoids; dose 0.40 uM,−1.425
same,Dose.FC.CTG,ENR+CD organoids; dose 2.00 uM,−0.706 log2 fold change
same,Z.CTG (standard z score),ENR+CD organoids; dose 2.00 uM,−1.686
same,Dose.FC.CTG,ENR+CD organoids; dose 10.00 uM,−0.959 log2 fold change
same,Z.CTG (standard z score),ENR+CD organoids; dose 10.00 uM,−2.291
O=c1ncn2nc(Sc3ccc(F)cc3F)ccc2c1-c1c(Cl)cccc1Cl [VX-745],Dose.FC.LYZ.NS,[1]; dose 0.08 uM,0.092 log2 fold change
same,Z.LYZ.NS (standard z score),[1]; dose 0.08 uM,0.805
same,Dose.FC.LYZ.NS,[1]; dose 0.40 uM,0.004 log2 fold change
same,Z.LYZ.NS (standard z score),[1]; dose 0.40 uM,0.031
same,Dose.FC.LYZ.NS,[1]; dose 2.00 uM,0.021 log2 fold change
same,Z.LYZ.NS (standard z score),[1]; dose 2.00 uM,0.186
same,Dose.FC.LYZ.NS,[1]; dose 10.00 uM,−0.006 log2 fold change
same,Z.LYZ.NS (standard z score),[1]; dose 10.00 uM,−0.049
same,Dose.FC.LYZ.S,[2]; dose 0.08 uM,0.154 log2 fold change
same,Dose.FC.LYZ.S,[2]; dose 0.40 uM,0.054 log2 fold change
same,Dose.FC.LYZ.S,[2]; dose 2.00 uM,0.058 log2 fold change
same,Dose.FC.LYZ.S,[2]; dose 10.00 uM,0.038 log2 fold change
same,Dose.FC.CTG,ENR+CD organoids; dose 0.08 uM,0.186 log2 fold change
same,Dose.FC.CTG,ENR+CD organoids; dose 0.40 uM,0.146 log2 fold change
same,Dose.FC.CTG,ENR+CD organoids; dose 2.00 uM,0.018 log2 fold change
same,Dose.FC.CTG,ENR+CD organoids; dose 10.00 uM,0.022 log2 fold change
CCO[C@@H]1OC(=O)C[C@@H]1NC(=O)[C@@H]1CCCN1C(=O)[C@@H](NC(=O)c1ccc(N)c(Cl)c1)C(C)(C)C [VX-765],Dose.FC.LYZ.NS,[1]; dose 0.08 uM,0.043 log2 fold change
same,Z.LYZ.NS (standard z score),[1]; dose 0.08 uM,0.371
same,Dose.FC.LYZ.NS,[1]; dose 0.40 uM,0.036 log2 fold change
same,Z.LYZ.NS (standard z score),[1]; dose 0.40 uM,0.317
same,Dose.FC.LYZ.NS,[1]; dose 2.00 uM,0.059 log2 fold change
same,Z.LYZ.NS (standard z score),[1]; dose 2.00 uM,0.516
same,Dose.FC.LYZ.NS,[1]; dose 10.00 uM,0.022 log2 fold change
same,Z.LYZ.NS (standard z score),[1]; dose 10.00 uM,0.190
same,Dose.FC.LYZ.S,[2]; dose 0.08 uM,0.091 log2 fold change
same,Dose.FC.LYZ.S,[2]; dose 0.40 uM,0.032 log2 fold change
same,Dose.FC.LYZ.S,[2]; dose 2.00 uM,0.061 log2 fold change
same,Dose.FC.LYZ.S,[2]; dose 10.00 uM,0.174 log2 fold change
same,Dose.FC.CTG,ENR+CD organoids; dose 0.08 uM,0.154 log2 fold change
same,Dose.FC.CTG,ENR+CD organoids; dose 0.40 uM,0.232 log2 fold change
same,Dose.FC.CTG,ENR+CD organoids; dose 2.00 uM,0.165 log2 fold change
same,Dose.FC.CTG,ENR+CD organoids; dose 10.00 uM,0.254 log2 fold change
